Data set [1] concerns M. tuberculosis H37Rv strain. The data set is described as follows: Minimum inhibitory concentration, resazurin reduction microplate assay (REMA). The class given is cell-based. The following applies: Mycobacterium tuberculosis.
The target of data set [2] is T1, MtFolB (Mycobacterium tuberculosis, UniProt P9WNC5).
T1 construct: made in house
The data set is described as follows: Mode of inhibition and inhibition constants on MtFolB aldolase activity (Lineweaver-Burk). Format: biochemical. The note with it: towards substrate DHNP; for Ki: read-out: Kis DHNP. How it is done: The mode of inhibition and the inhibition constants (Ki and/or Kis) were defined for the compounds 3a-e. There are three categories for the inhibition mode: competitive, where inhibitor and substrate binding are mutually exclusive; non-competitive, if the inhibitor can bind to both the free enzyme and the enzyme-substrate complex; or uncompetitive, when the inhibitor binds only to the enzyme-substrate complex. For each compound, 3 curves were performed with fixed-varied inhibitor concentration and varying the DHNP concentration until saturation of enzyme activity. For the compound 3a the fixed-varied concentrations were 0.2 μM, 0.5 μM and 0.8 μM (varying DHNP 0.5 – 10 μM). For the compound 3b the fixed-varied concentrations were 0.1 µM (varying DHNP 0.2 – 10 µM); 0.3 μM (varying DHNP 0.5 – 10 μM) and 0.6 μM (varying DHNP 0.5 – 15 μM). For the compound 3c the fixed-varied concentrations were 0.3 μM, 0.6 μM and 0.9 μM (varying DHNP 0.5 – 10 μM). For the compound 3d the fixed-varied concentrations were 0.5 μM, 1 μM (varying DHNP 0.5 – 10 μM) and 2.5 μM (varying DHNP 1 – 10 μM). For the compound 3e the fixed-varied concentrations were 1.4 µM, 3.5 µM (varying DHNP 0.5 – 10 µM) and 7 µM (varying DHNP 1 – 10 µM). Furthermore, we performed a control experiment with 10% DMSO in the absence of inhibitors varying the DHNP concentration until saturation (0.2 – 10 µM). The straight-line patterns obtained were used to define the mode of inhibition. The diagnostic signature of a competitive inhibitor is a set of lines that intersect on the y-axis, for non-competitive inhibitors the pattern of intersection is to the left of the y-axis and for uncompetitive inhibitors the lines are parallel to each other. The inhibition constants were calculated using Equation (2) for competitive inhibitors or Equation (3) for non-competitive inhibitors, where [I] is the inhibitor concentration, [S] is the substrate concentration, KM is the Michaelis-Menten constant, Vmax is the maximum velocity, Kis is the inhibition constant for the enzyme-substrate complex, and Kii is the inhibition constant for the enzyme-substrate-inhibitor complex. (2) 1/v0=KM/Vmax(1+[I]/Kis)1/[S]+1/Vmax (3) 1/v0=KM/Vmax(1+[I]/Kis)1/[S]+1/Vmax(1+[I]/Kii)

Data set [3] deals with Vero cells. Put plainly: in vitro. Format: cell-based. The following applies: for % of cell viability ± SEM: African green monkey, 72 h. How it is done:
(§1) Cell viability assays in the presence of compound 3e were performed in both Vero (BCRJ code 0245) and HepG2 (BCRJ code 0291) cells using MTT (3-[4,5-dimethylthiazol-2-yl]-2,5 diphenyl tetrazolium bromide)[21] and neutral red uptake (NRU)[22] methods. Both cell lines were grown in Dulbecco’s Modified Eagle Medium (DMEM-Gibco, Grand Island, NY, USA) supplemented with 10% or 20% inactivated foetal bovine serum (FBS- Invitrogen) for Vero and HepG2, respectively, 1% penicillin (Gibco) and streptomycin (Gibco), and 0.1% fungizone (Gibco). The experiments were performed in 96-well plates. First, cells were seeded at 6 x 10^3 (Vero) or 7 x 10^3/well (HepG2) and incubated overnight at 37 °C under a 5% CO2 atmosphere. Then, the medium was removed and replaced with fresh medium containing the compound at a final concentration of 75 µM, 87.5 µM, or 100 µM with DMSO at a final concentration of 0.8%. Cells were incubated during 72 h at 37 °C under a 5% CO2 atmosphere. For the MTT assay, the medium was removed after the incubation and replaced with MTT reagent (Sigma-Aldrich) at 5 mg/mL, and then the cells were incubated for 4 h. DMSO was used to solubilise formazan crystals. The absorbance was measured at 570 nm using microplate reader (EZ Read 400 microplate reader, Biochrom, Cambridge, UK). Precipitated purple formazan crystals were directly proportional to the number of live cells with mitochondrial metabolism. For the NRU assay, after the incubation with the compound, the media was removed and 200 µL of neutral red dye solution (Sigma-Aldrich) at 25 µg/mL prepared in serum-free medium was added to each well. The plate was then incubated for 3 h at 37 °C under 5% CO2. After this time, cells were washed twice with PBS, followed by incubation with 100 μL of a desorb solution (ethanol/acetic acid/water, […]) for 30 min, with gentle shaking to extract neutral red dye from the viable cells. The absorbance was measured at 562 nm using microplate reader (EZ Read 400 microplate reader, Biochrom, Cambridge, UK). Treated control wells (0.8% DMSO) were used as references for maximum cell viability (100%). Three independent experiments were performed, and the data were expressed as the means of cell viability ± the standard error of the means. Statistical analysis was performed using one-way ANOVA analysis of variance followed by Dunett’s Multiple Comparison Test post-test using GraphPad Prism 9.0.0 (San Diego, CA, USA).

Data set [4] concerns HepG2 cells. Put plainly: in vitro. Format: cell-based. The note with it: for % of cell viability ± SEM: human, 72 h. How it is done: as §1
Data set [5] can be described thus: in vitro. Format: cell-based. The following applies: % of cell viability ± SEM. How it is done:
as §1

Data set [6] is described as follows: physchem. The following applies: 25 °C, thermodynamic from solid. Format: physicochemical. Here is the method:
The solubility of the compound 3e was evaluated under three pH conditions: pH 1.2 (HCl 0.1 M); pH 7.4 (PBS 1X); and pH 9.1 (NH4HCO3 0.1 M). For this assay, we prepared a suspension of compound 3e at 1 mg/mL in each buffer solution by vortexing it for 1 min. Then, the suspension was kept under constant shaking for 4 h at 25 °C. Subsequently, the suspension was centrifuged at 13,000 rpm for 15 min at 25 °C. The supernatant was quantified by ultra-high-performance liquid chromatography (UHPLC) using single-point calibration of a known concentration of the compound in DMSO. The experiment was performed in triplicate.

Where [7] appears, read: REMA, 7 days + 48 h resazurin, read-out: MIC.
Setting [8] is: converted from µg/mL, read-out: MIC (equivalent).

Values after ≈ are worked out from the molar mass of the structure shown. Values joined by “and” are separate entries in the source; they are usually repeats but may differ in a detail not shown here. Equal values may be shown once. Read-outs that look alike come from different tables or passages of the source.

T1 sequence (P9WNC5 whole entry): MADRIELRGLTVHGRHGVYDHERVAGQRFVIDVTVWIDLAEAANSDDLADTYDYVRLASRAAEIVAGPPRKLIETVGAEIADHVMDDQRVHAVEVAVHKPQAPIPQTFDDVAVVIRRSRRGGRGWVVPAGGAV

Broadly, the melting point is the temperature of the solid-liquid transition. Regarding `C[C@@H](NC(=O)CSc1nc2c(=O)[nH]c(N)nc2[nH]1)C1CCCCC1` [Compound 3n, (R)-2-((2-amino-6-oxo-6,9-dihydro-1H-purin-8-yl)thio)-N-(1-cyclohexylethyl)acetamide], the melting point is 289 to 291 °C (dec.).

On to `CN(C(=O)CSc1nc2c(=O)[nH]c(N)nc2[nH]1)C1CCCCC1` [Compound 3j, 2-((2-amino-6-oxo-6,9-dihydro-1H-purin-8-yl)thio)-N-cyclohexyl-N-methylacetamide], for which the melting point is 272 to 274 °C (dec.).

One may read the MIC as the lowest concentration found to suppress growth. On to `NNC(=O)c1ccncc1` [INH, Isoniazid], for which the figures for the MIC in data set [1] (setting [7]) and in data set [1] (setting [8]) were 0.31 µg/mL and 2.3 µM, respectively.

For `Nc1nc2[nH]c(SCC(=O)NC3CCCC3)nc2c(=O)[nH]1` [Compound 3h, 2-((2-amino-6-oxo-6,9-dihydro-1H-purin-8-yl)thio)-N-cyclopentylacetamide], the melting point is 280 to 282 °C (dec.).

Turning to `Nc1nc2[nH]c(SCC(=O)Nc3ccc(N4CCOCC4)cc3)nc2c(=O)[nH]1` [Compound 3b, 2-((2-amino-6-oxo-6,9-dihydro-1H-purin-8-yl)thio)-N-(4-morpholinophenyl)acetamide], the melting point was 326 to 328 °C (dec.). In data set [2], the Inhibition mode result is given as “Competitive” and the Ki came out at 0.3 ± 0.08 µM.

Take `C[C@H](NC(=O)CSc1nc2c(=O)[nH]c(N)nc2[nH]1)C1CCCCC1` [Compound 3m, (S)-2-((2-amino-6-oxo-6,9-dihydro-1H-purin-8-yl)thio)-N-(1-cyclohexylethyl)acetamide]: the melting point was 294 to 296 °C (dec.).

In the case of `Nc1nc2[nH]c(SCC(=O)NC3CCC3)nc2c(=O)[nH]1` [Compound 3i, 2-((2-amino-6-oxo-6,9-dihydro-1H-purin-8-yl)thio)-N-cyclobutylacetamide], the melting point was 285 to 287 °C (dec.).

For `Nc1nc2[nH]c(SCC(=O)Nc3ccc(N4CCCCC4)cc3)nc2c(=O)[nH]1` [Compound 3a, 2-((2-amino-6-oxo-6,9-dihydro-1H-purin-8-yl)thio)-N-(4-(piperidin-1-yl)phenyl)acetamide], the melting point is 258 to 260 °C (dec.). Moreover, in data set [2], the Inhibition mode entry was “Competitive” and the Ki worked out at 0.4 ± 0.1 µM.

As to `Nc1nc2[nH]c(SCC(=O)NC3CCCCCC3)nc2c(=O)[nH]1` [Compound 3f, 2-((2-amino-6-oxo-6,9-dihydro-1H-purin-8-yl)thio)-N-cycloheptylacetamide], the melting point is 292 to 294 °C (dec.).

`Nc1nc2[nH]c(SCC(=O)Nc3ccc(C(=O)N4CCCC4)cc3)nc2c(=O)[nH]1` [Compound 3c, 2-((2-amino-6-oxo-6,9-dihydro-1H-purin-8-yl)thio)-N-(4-(pyrrolidine-1-carbonyl)phenyl)acetamide]: the melting point was 237 to 239 °C (dec.). Also, in data set [2], the Inhibition mode entry was “Non-competitive”; the “Kii DHNP” value was 1.5 µM and 1.5 ± 0.9 µM; the Ki is 0.3 ± 0.2 µM.

In the case of `Nc1nc2[nH]c(SCC(=O)Nc3ccc4c(c3)CCCC4)nc2c(=O)[nH]1` [Compound 3d, 2-((2-amino-6-oxo-6,9-dihydro-1H-purin-8-yl)thio)-N-(5,6,7,8-tetrahydronaphthalen-2-yl)acetamide], the melting point is 294 to 295 °C (dec.). In addition, in data set [2], the Inhibition mode result is reported as “Competitive” and the Ki is 0.2 ± 0.05 µM.

Regarding `C[C@@H]1[C@H](NC(=O)CSc2nc3c(=O)[nH]c(N)nc3[nH]2)C[C@H]2C[C@@H]1C2(C)C` [Compound 3k, 2-((2-amino-6-oxo-6,9-dihydro-1H-purin-8-yl)thio)-N-((1S,2S,3R,5R)-2,6,6-trimethylbicyclo [3.1.1]heptan-3-yl)acetamide], the melting point was 289 to 291 °C (dec.).

Broadly, the viability is a read-out of living cells in per cent, often relative to untreated cells. The term solubility denotes how much of the substance goes into solution per volume. Turning to `Nc1nc2[nH]c(SCC(=O)Nc3cccc4c3CCCC4)nc2c(=O)[nH]1` [Compound 3e, 2-((2-amino-6-oxo-6,9-dihydro-1H-purin-8-yl)thio)-N-(5,6,7,8-tetrahydronaphthalen-1-yl)acetamide], the melting point was 260 to 261 °C (dec.). In addition, the MIC in data set [1] (setting [7]) worked out at 40 µg/mL. In data set [1] (setting [8]), the MIC was 108 µM. Moreover, the toxicity entry in data set [3] was “no apparent toxicity”. Further, the “% of cell viability ± SEM” value in data set [3] (75 µM) was found to be 96 ± 1%. The “% of cell viability ± SEM” value in data set [3] (87.5 µM) is on record as 102 ± 3%. For the same compound, the “% of cell viability ± SEM” value in data set [3] (100 µM) is reported as 96 ± 2%. Further, the toxicity result in data set [4] is “no apparent toxicity”. In data set [4] (75 µM), the “% of cell viability ± SEM” value amounted to 100 ± 6%. Moreover, in data set [4] (87.5 µM), the “% of cell viability ± SEM” value stood at 111 ± 3%. Also, in data set [4] (100 µM), the “% of cell viability ± SEM” value came to 104 ± 2%. Further, in data set [5] (African green monkey), the viability at 72 h, 75 µM was determined as 115 ± 2%; the viability at 72 h, 87.5 µM is 94 ± 10%; the viability at 72 h, 100 µM worked out at 94 ± 3%. Besides, in data set [5] (human), the viability at 72 h, 75 µM came out at 108 ± 3%; the viability at 72 h, 87.5 µM turned out to be 97 ± 2%; the viability at 72 h, 100 µM was determined as 96 ± 2%. Further, in data set [2], the Inhibition mode entry was “Non-competitive”; the “Kii DHNP” value is 6.3 µM and 6.3 ± 1.2 µM; the Ki is 1.4 ± 0.3 µM. In addition, the concentration in solution in data set [6] (pH 1.2, simulated gastric fluid) (solubility at 4 h) came to 612 µM (≈ 227 µg/mL). In addition, the solubility at 4 h in data set [6] (pH 7.4, aqueous buffer) was 1.1 µM (≈ 0.407 µg/mL). Also, in data set [6] (pH 9.1, aqueous buffer), the solubility at 4 h worked out at 37.6 µM (≈ 13.9 µg/mL).

Take `Nc1nc2[nH]c(SCC(=O)NCC3CCCCC3)nc2c(=O)[nH]1` [Compound 3l, 2-((2-amino-6-oxo-6,9-dihydro-1H-purin-8-yl)thio)-N-(cyclohexylmethyl)acetamide]: the melting point is 262 to 263 °C (dec.).

As to `CC1CCC(NC(=O)CSc2nc3c(=O)[nH]c(N)nc3[nH]2)CC1` (centres unmarked) [Compound 3g, 2-((2-amino-6-oxo-6,9-dihydro-1H-purin-8-yl)thio)-N-(4-methylcyclohexyl)acetamide], the melting point is 282 to 284 °C (dec.).

The values are drawn from publication PMC11328599, “Crystal structure of dihydroneopterin aldolase from Mycobacterium tuberculosis associated with 8-mercaptoguanine, and development of novel S8-functionalized analogues as inhibitors: Synthesis, enzyme inhibition, in vitro toxicity and antitubercular activity” (Journal of Enzyme Inhibition and Medicinal Chemistry, 2024).
